Measured values published in BindingDB's records for patent US9908886 (Agency For Science, Technology and Research, 2018).

Tests used:
[1] = molecular target: MAP kinase-interacting serine/threonine-protein kinase 1 (Homo sapiens, UniProt Q9BUB5); assay: In Vitro Kinase Assay
Protocol: (§1) MNK1 and MNK2 inhibitor activity was determined using recombinant kinase domains expressed in E. coli. MNK1 and MNK2 were expressed as GST fusion proteins and the GST tag was removed using PreScission protease. After concentration to 10-15 mg/ml the proteins were flash frozen in liquid nitrogen and stored at −80° C. […] This reaction mixture was then used immediately for the activation of the MNKs. The activation of the MNK1 was performed by incubating 5.0 μM of MNK1 with 0.3 μM of activated ERK2 and 500 μM ATP at 30° C. for 6 hours. The activation of MNK2 was performed by incubating 50 μM of MNK2 with 3.0 μM of activated ERK2 and 500 μM ATP at 30° C. for 2 hours. The activated MNKs were stored at −20° C. until required for assay.

[2] = molecular target: MAP kinase-interacting serine/threonine-protein kinase 2 (Homo sapiens, UniProt Q9HBH9); assay: In Vitro Kinase Assay
Protocol: as §1

MAP kinase-interacting serine/threonine-protein kinase 2, sequence (Q9HBH9 whole entry): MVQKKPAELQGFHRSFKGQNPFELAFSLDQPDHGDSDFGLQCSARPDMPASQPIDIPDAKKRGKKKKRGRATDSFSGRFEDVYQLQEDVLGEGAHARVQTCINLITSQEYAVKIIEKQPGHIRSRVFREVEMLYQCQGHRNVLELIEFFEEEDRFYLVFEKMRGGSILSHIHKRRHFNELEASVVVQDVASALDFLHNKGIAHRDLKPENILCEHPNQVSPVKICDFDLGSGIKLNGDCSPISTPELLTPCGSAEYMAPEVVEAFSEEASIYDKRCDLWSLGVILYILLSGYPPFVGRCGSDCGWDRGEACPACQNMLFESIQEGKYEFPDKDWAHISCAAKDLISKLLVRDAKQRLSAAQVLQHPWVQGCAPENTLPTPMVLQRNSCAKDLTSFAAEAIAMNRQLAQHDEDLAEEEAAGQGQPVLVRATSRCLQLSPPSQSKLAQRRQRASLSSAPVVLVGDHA
MAP kinase-interacting serine/threonine-protein kinase 1, sequence (Q9BUB5 whole entry, the tested form may be a part): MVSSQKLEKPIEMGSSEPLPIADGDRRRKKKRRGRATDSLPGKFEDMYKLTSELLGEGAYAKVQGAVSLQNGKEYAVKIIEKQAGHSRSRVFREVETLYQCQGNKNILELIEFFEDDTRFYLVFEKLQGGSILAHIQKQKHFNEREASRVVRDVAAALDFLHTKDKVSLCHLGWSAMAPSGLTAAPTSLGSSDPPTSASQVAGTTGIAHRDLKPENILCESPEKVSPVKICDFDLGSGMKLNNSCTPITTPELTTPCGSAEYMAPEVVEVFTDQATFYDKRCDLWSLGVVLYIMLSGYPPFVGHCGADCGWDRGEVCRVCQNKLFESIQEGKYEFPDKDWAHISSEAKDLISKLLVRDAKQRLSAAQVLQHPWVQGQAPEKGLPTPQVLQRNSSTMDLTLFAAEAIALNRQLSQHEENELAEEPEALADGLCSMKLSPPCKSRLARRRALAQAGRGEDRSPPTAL

Question: Which IC50 [1] does the source give for CN1CCN(C(=O)c2ccc(-c3ccc4ncc(-c5ccc(C#N)cc5)n4n3)cc2)CC1 [US9908886, Example 54] here?
Answer: < 100 nM

Question: And the IC50 [2]?
Answer: < 100 nM
